The values below come from patent publication US20230174507A1, “IMIDAZOLE 3-OXIDE DERIVATIVE BASED ACSS2 INHIBITORS AND METHODS OF USE THEREOF” (METABOMED LTD., priority 2020, published 2023).

One assay addresses T1, human ACSS2 protein (Homo sapiens, UniProt Q9NR19).
T1 construct: purchased OriGene Technologies, Inc
Put plainly: ACSS2 cell-free activity assay (pyrophosphatase-coupled, Biomol green). As to conditions: 10 nM human ACSS2, 90 minutes at 37 C, absorbance at 620 nm; read-out: ACSS2 Biochemical IC50; call rule not given here. How it is done:
ACSS2 Cell-Free Activity Assay (Cell-Free IC50)
The assay is based on a coupling reaction with Pyrophosphatase: ACSS2 is converting ATP+CoA+Acetate=>AMP+pyrophosphate+Acetyl-CoA (Ac-CoA). Pyrophosphatase converts pyrophosphate, a product of the ACSS2 reaction, to phosphate which can be detected by measuring the absorbance at 620 nm after incubation with the Biomol green reagent (Enzo life Science, BML-AK111).
(§1) Cell Free IC50 Determination:
10 nM of human ACSS2 protein (OriGene Technologies, Inc) was incubated for 90 minutes at 37 C with various compounds' concentrations in a reaction containing 50 mM Hepes pH 7.5, 10 mM DTT, 90 mM KCl, 0.006% Tween-20, 0.1 mg/ml BSA, 2 mM MgCl2, 10 μM CoA, 5 mM NaAc, 300 μM ATP and 0.5 U/ml Pyrophosphatase (Sigma). At the end of the reaction, Biomol Green was added for 30 minutes at RT and the activity was measured by reading the absorbance at 620 nm. IC50 values were calculated using non-linear regression curve fit with 0% and 100% constrains (CDD Vault, Collaborative Drug Discovery, Inc.).

A further assay addresses T2, human ACSS1 protein (Homo sapiens, UniProt Q9NUB1).
T2 construct: purchased MyBioSource
T2 sequence (Q9NUB1 38-689): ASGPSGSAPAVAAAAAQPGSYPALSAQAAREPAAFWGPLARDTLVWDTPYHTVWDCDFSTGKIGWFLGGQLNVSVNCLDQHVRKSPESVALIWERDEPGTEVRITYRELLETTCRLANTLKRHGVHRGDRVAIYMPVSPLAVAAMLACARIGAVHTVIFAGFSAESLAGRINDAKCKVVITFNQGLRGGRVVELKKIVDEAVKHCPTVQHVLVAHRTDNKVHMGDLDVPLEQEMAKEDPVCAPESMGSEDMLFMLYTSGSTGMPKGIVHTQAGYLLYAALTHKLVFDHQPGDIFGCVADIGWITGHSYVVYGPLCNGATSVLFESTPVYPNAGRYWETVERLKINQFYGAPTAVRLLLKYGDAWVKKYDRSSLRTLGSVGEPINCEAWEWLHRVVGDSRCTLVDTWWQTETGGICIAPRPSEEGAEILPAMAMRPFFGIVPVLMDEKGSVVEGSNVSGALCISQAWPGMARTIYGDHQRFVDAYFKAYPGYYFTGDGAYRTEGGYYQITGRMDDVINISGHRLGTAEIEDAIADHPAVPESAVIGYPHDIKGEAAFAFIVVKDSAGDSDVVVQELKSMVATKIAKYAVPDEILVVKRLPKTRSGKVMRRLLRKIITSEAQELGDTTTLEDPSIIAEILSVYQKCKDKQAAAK
Put plainly: ACSS1 cell-free activity assay (pyrophosphatase-coupled, Biomol green). The format is biochemical. The conditions noted are these: 5 nM human ACSS1, 30 minutes at room temperature, absorbance at 620 nm. The procedure:
ACSS1 Cell-Free Activity Assay (Cell-Free IC50)
The assay is based on a coupling reaction with Pyrophosphatase: ACSS1 is converting ATP+CoA+Acetate=>AMP+pyrophosphate+Acetyl-CoA (Ac-CoA). Pyrophosphatase converts pyrophosphate, a product of the ACSS1 reaction, to phosphate which can be detected by measuring the absorbance at 620 nm after incubation with the Biomol green reagent (Enzo life Science, BML-AK111).
as §1
5 nM of human ACSS1 protein (MyBioSource) was incubated for 30 minutes at room temperature with various compounds' concentrations in a reaction containing 50 mM Hepes pH 7.5, 10 mM DTT, 90 mM KCl, 0.006% Tween-20, 0.1 mg/ml BSA, 2 mM MgCl2, 15 μM CoA, 5 mM NaAc, 300 μM ATP and 0.5 U/ml Pyrophosphatase (Sigma). At the end of the reaction, Biomol Green was added for 30 minutes at RT and the activity was measured by reading the absorbance at 620 nm. IC50 values were calculated using non-linear regression curve fit with 0% and 100% constrains (CDD Vault, Collaborative Drug Discovery, Inc.).

T1 sequence (Q9NR19 whole entry): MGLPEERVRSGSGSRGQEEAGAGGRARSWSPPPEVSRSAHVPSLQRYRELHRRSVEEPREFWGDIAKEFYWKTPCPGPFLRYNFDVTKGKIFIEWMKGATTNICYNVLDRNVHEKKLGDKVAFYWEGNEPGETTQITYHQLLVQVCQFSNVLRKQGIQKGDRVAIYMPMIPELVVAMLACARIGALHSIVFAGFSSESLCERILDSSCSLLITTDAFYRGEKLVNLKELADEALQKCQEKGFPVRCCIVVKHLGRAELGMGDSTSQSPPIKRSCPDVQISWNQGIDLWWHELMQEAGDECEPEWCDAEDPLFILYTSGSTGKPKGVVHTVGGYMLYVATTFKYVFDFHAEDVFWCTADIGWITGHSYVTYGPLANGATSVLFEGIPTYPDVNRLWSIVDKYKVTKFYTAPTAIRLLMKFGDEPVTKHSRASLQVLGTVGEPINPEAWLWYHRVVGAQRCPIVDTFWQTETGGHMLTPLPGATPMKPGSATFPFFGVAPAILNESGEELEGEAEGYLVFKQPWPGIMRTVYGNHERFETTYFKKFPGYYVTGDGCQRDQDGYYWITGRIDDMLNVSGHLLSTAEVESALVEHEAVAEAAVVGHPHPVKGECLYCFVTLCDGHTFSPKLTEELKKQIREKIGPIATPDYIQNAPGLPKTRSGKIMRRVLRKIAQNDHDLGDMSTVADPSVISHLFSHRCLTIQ

In the case of `CCC(F)(F)c1cccc(NC(=O)c2c(C)[nH]c(-c3ccc(OC)c(N4CCNCC4)c3)[n+]2[O-])c1` [Compound 164, 4-((3-(1,1-difluoropropyl)phenyl)carbamoyl)-2-(4-methoxy-3-(piperazin-1-yl)phenyl)-5-methyl-1H-imidazole 3-oxide], at human ACSS2 protein, the IC50 was less than 1 nM. For the same molecule, the “ACSS1 Biochemical IC50 (nM)” value on human ACSS1 protein is on record as “Inactive”.
The corresponding values for `C/C=C/c1cc(C)c(-c2cc(-c3[nH]c(C)c(C(=O)Nc4cccc(C(F)(F)CC)c4)[n+]3[O-])ccc2OC)c(C)c1` [Compound 159, (E)-4-((3-(1,1-difluoropropyl)phenyl)carbamoyl)-2-(6-methoxy-2′,6′-dimethyl-4′-(prop-1-en-1-yl)-[1,1′-biphenyl]-3-yl)-5-methyl-1H-imidazole 3-oxide] are 1 to 30 nM and “Inactive”.
With `CCC(F)(F)c1cccc(NC(=O)c2c(C)[nH]c(-c3ccc(OC)c(-c4c(C(F)(F)F)cccc4C(F)(F)F)c3)[n+]2[O-])c1` [Compound 128, 4-((3-(1,1-difluoropropyl)phenyl)carbamoyl)-2-(6-methoxy-2′,6′-bis(trifluoromethyl)-[1,1′-biphenyl]-3-yl)-5-methyl-1H-imidazole 3-oxide], on human ACSS2 protein, the IC50 lay within 1 to 30 nM. Moreover, the “ACSS1 Biochemical IC50 (nM)” value at human ACSS1 protein is recorded as “Inactive”.
Consider `CCC(F)(F)c1cccc(NC(=O)c2c(C)[nH]c(-c3ccc(C(C)C)c(-c4c(C)cccc4C)c3)[n+]2[O-])c1` [Compound 117, 4-((3-(1,1-difluoropropyl)phenyl)carbamoyl)-2-(6-isopropyl-2′,6′-dimethyl-[1,1′-biphenyl]-3-yl)-5-methyl-1H-imidazole 3-oxide], for which, on human ACSS2 protein, the IC50 lay within 1 to 30 nM. On human ACSS1 protein, the “ACSS1 Biochemical IC50 (nM)” value was “Inactive”.
For `COc1cc(F)c(-c2[nH]c(C)c(C(=O)Nc3cccc(C(F)(F)F)c3)[n+]2[O-])nc1-c1c(F)cccc1F` [Compound 208, 2-(6-(2,6-difluorophenyl)-3-fluoro-5-methoxypyridin-2-yl)-5-methyl-4-((3-(trifluoromethyl)phenyl)carbamoyl)-1H-imidazole 3-oxide], the IC50 on human ACSS2 protein lay in the range of 1 to 30 nM. The “ACSS1 Biochemical IC50 (nM)” value at human ACSS1 protein is recorded as “Inactive”.
With `COc1ccc(-c2[nH]c(C)c(C(=O)Nc3cccc(C(=O)N4CCCCC4)c3)[n+]2[O-])cc1-c1c(C)cccc1C` [Compound 139, 2-(6-methoxy-2′,6′-dimethyl-[1,1′-biphenyl]-3-yl)-5-methyl-4-((3-(piperidine-1-carbonyl)phenyl)carbamoyl)-1H-imidazole 3-oxide], the IC50 on human ACSS2 protein is greater than 30 nM. Further, the “ACSS1 Biochemical IC50 (nM)” value on human ACSS1 protein is listed as “Inactive”.
The corresponding values for `Cc1cccc(C)c1-c1cc(-c2c(C)cccc2C)cc(-c2[nH]c(C)c(C(=O)Nc3cccc(C(F)(F)C4CC4)c3)[n+]2[O-])c1` [Compound 132, 4-((3-(cyclopropyldifluoromethyl)phenyl)carbamoyl)-5-methyl-2-(2,2″,6,6″-tetramethyl-[1,1′:3′,1″-terphenyl]-5′-yl)-1H-imidazole 3-oxide] are 1 to 30 nM and “Inactive”.
For the molecule `COc1ccc(-c2[nH]c(C)c(C(=O)Nc3cccc(C4(C(F)(F)F)CC4)c3)[n+]2[O-])cc1-c1c(C)cccc1C` [Compound 206, 2-(6-methoxy-2′,6′-dimethyl-[1,1′-biphenyl]-3-yl)-5-methyl-4-((3-(1-(trifluoromethyl)cyclopropyl)phenyl)carbamoyl)-1H-imidazole 3-oxide], the IC50 at human ACSS2 protein is greater than 30 nM. Also, the “ACSS1 Biochemical IC50 (nM)” value on human ACSS1 protein is given as “Inactive”.
Regarding `COc1ccc(-c2[nH]c(C)c(C(=O)Nc3cccc(-c4ccc[nH]4)c3)[n+]2[O-])cc1-c1c(C)cccc1C` [Compound 191, 4-((3-(1H-pyrrol-2-yl)phenyl)carbamoyl)-2-(6-methoxy-2′,6′-dimethyl-[1,1′-biphenyl]-3-yl)-5-methyl-1H-imidazole 3-oxide], at human ACSS2 protein, the IC50 was greater than 30 nM. In addition, at human ACSS1 protein, the “ACSS1 Biochemical IC50 (nM)” value is reported as “Inactive”.
